Results from US8598122B2, “Antagonistic peptides for frizzled-1 and frizzled-2” (Universiteit Maastricht, priority 2009, dated 2013).
Blank lines part the entries; values can stand above or below the molecule they belong to. Where a SMILES comes first, the peptide text is derived from it. Bridges are numbered along the chain shown (N, C = ends). Where no end group is shown, it is not given here. rhodamine = not defined here

Key:
frizzled-2 (rFzd-2) = target: T1, frizzled-2 (rFzd-2) (Rattus norvegicus, UniProt Q08464); test: Activity assay: Wnt3a-induced luciferase (superTOPflash) in HEK cells transfected with frizzled-2; type: cell-based; details: for Blocking of Wnt3a-induced luciferase activity, rFzd-2: peptide 1.10^−8 M
T1 construct: expressed in transfected cells; host or cells: HEK293 superTOPflash (human embryonic kidney), transient, pcDNA3.1/hygro
T1 sequence (Q08464 29-570): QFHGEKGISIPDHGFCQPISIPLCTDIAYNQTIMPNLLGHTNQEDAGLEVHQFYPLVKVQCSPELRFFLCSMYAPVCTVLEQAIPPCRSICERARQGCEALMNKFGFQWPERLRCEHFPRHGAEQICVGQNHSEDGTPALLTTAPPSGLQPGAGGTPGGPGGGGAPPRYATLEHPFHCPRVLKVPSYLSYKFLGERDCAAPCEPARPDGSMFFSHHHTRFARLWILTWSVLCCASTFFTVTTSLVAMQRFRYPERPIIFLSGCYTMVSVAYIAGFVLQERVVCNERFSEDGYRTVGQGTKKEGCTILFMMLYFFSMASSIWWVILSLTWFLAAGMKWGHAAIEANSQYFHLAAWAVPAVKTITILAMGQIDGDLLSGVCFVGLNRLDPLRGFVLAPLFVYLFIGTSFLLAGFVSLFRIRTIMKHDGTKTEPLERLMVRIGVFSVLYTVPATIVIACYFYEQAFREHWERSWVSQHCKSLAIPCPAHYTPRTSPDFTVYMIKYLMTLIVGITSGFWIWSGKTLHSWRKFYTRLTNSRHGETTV
Description: (§1) Human embryonic kidney (HEK) cells were used for screening. These cells have a luciferase construct stably transfected into the genome (see FIG. 2A), such that when the frizzled receptor is activated and β-catenin is increased, the luciferase is activated by transcription and light can be measured.
(§2) The peptides were tested by transfecting the frizzled-1 or the frizzled-2 receptor and addition of UM206(S-S) to the cell culture. For testing antagonistic activity, UM206 was added and the natural ligand Wnt3a was added, which is a natural stimulus for the canonical pathway.
(§3) Day 2: Transfection 12-well plates • heat Fugene6 and DNA 15 minutes at RT • 2 ml serum-free medium in tube • add 3μl fugene • add 2 μg DNA • incubate 30 minutes at RT • wash with PBS • add 50 μtransfectiemix • add 1 ml antibiotica-free medium
(§4) Day 3: Add conditioned medium or UM206
(§5) Day 4: Luciferase activity measurements • remove medium • wash with PBS • add 500 μl ⅕ lysisbuffer • shake for 60 minutes • centrifuge in tube • 20 μl lysaat and 50 μl luciferase in new tube for measurement • vortex • measure
(§6) To determine the inhibitory constant of UM206-8, HEK293-superTOPflash cells were transfected with either rFzd-1 or -2 and incubated with Wnt3a (10^−9M) in the presence of increasing concentrations of either of the peptides (FIG. 15). For UM206, a biphasic inhibition curve was observed that was best fitted with a two-binding-state model.
(§7) The cell lines were cultured in 75 cm^2 culture flasks (Corning, Schiphol, the Netherlands) in Dulbeco's modified essential medium with L-glutamine (2 mM), 10% fetal calf serum (Invitrogen, Merelbeke, Belgium), and 1% gentamycin (Sigma-Aldrich, Zwijndrecht, The Netherlands). Before starting the experiment, the cell lines were treated with plasmocin 25 μg/ml (Invivogen, Toulose, France) and tested with a mycoalert mycoplasma detection kit (Lonza, Rockland Me., USA). Cells were transiently transfected with Fugene6 (Roche, Indianapolis Ind., USA) with plasmid DNA, pcDNA3.1/hygro (Invitrogen) with frizzled-1/2/4 or Wnts 3a-5a or with pcDNA3.0 (Invitrogen) containing the β-catenin or frizzled-5 sequence. After transfection, the cells were cultured for 24 hours in conditioned medium, collected from the cultured L-cells, L-cells with Wnt3a or 5a (Invitrogen). At the same moment the antagonist was added.

frizzled receptor = test: Activity on the frizzled receptor (activity assay of Example 1), result in words; type: cell-based
Description: as §1, §2
Analogues of UM206 were prepared by solid phase peptide synthesis. Each amino acid residue was sequentially replaced by an alanine residue and antagonistic activity of the analogue was tested as described in the activity assay of Example 1. […] Titles indicate which amino acid residue was substituted by an alanine residue.

frizzled-1 (rFzd-1) = target: T2, frizzled-1 (rFzd-1) (Rattus norvegicus, UniProt Q08463); test: Activity assay: Wnt3a-induced luciferase (superTOPflash) in HEK cells transfected with frizzled-1; type: cell-based; details: for Blocking of Wnt3a-induced luciferase activity, rFzd-1: peptide 1.10^−8 M
T2 construct: expressed in transfected cells; host or cells: HEK293 superTOPflash (human embryonic kidney), transient, pcDNA3.1/hygro
T2 sequence (Q08463 69-641): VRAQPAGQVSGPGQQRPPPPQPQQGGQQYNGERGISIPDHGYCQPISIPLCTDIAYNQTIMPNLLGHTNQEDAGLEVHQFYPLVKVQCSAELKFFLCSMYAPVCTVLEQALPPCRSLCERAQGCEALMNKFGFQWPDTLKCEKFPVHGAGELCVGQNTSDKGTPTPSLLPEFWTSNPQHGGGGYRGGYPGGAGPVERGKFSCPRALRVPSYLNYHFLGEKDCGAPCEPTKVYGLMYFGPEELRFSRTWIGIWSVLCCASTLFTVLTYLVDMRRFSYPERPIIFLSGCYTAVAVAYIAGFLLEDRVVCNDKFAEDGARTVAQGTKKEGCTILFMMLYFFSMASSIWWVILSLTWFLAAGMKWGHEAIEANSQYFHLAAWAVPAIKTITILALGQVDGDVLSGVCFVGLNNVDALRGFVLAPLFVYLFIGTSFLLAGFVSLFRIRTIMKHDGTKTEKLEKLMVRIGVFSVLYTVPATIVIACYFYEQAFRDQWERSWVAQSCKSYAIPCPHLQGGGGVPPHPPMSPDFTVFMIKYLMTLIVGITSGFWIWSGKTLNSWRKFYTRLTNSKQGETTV
Description: as §1, §2, §3, §4, §5, §6, §7

hFzd-5 = target: T3, hFzd-5 (Homo sapiens, UniProt Q13467); test: Luciferase activity in HEK293 superTOPflash cells overexpressing hFzd-5; type: cell-based; details: FIG. 3, Panel F
T3 construct: expressed in transfected cells; host or cells: HEK293 superTOPflash, transient, pcDNA3.0
T3 sequence (Q13467 27-585): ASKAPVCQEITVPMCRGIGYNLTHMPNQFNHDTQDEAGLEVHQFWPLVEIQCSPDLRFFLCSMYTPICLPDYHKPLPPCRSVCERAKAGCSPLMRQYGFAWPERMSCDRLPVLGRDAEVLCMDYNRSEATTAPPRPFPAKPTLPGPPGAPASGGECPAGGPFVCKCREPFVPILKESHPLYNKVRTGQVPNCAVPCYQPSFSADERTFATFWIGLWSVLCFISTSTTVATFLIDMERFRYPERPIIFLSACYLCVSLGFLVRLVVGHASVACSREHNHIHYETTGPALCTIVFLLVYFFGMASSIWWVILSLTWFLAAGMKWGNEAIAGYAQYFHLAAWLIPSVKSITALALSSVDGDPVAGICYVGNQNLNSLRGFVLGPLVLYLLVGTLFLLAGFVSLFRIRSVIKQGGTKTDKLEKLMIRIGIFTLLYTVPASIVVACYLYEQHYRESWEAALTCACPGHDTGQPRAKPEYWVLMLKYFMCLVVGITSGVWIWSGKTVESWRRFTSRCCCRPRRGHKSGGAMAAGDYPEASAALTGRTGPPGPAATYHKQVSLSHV
Description: (§8) In FIG. 3, Panel E, the efficacy of UM206 to block the Wnt3a-induced activation of luciferase activity in HEK293 superTOPflash cells transfected with different Fzds is shown.
as §7

hFzd-4 = target: T4, hFzd-4 (Homo sapiens, UniProt Q9ULV1); test: Luciferase activity in HEK293 superTOPflash cells overexpressing hFzd-4; type: cell-based; details: FIG. 3, Panel F
T4 construct: expressed in transfected cells; host or cells: HEK293 superTOPflash, transient, pcDNA3.1/hygro
T4 sequence (Q9ULV1 37-537): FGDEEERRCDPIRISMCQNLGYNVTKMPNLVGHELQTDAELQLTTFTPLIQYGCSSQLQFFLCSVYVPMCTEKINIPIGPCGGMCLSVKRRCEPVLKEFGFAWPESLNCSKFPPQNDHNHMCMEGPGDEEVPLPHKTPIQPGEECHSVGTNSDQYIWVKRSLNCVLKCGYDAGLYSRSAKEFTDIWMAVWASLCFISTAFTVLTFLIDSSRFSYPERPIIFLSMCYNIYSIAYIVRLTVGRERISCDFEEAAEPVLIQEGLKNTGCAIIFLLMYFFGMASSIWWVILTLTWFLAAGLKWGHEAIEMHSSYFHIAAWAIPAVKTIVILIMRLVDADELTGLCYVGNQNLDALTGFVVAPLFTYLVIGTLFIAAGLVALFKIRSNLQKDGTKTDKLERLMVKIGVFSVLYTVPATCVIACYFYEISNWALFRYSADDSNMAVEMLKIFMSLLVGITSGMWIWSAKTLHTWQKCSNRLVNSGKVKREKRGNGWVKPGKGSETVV
Description: as §8, §7

Fzd-1 and -2 = test: UM206-Rhodamine binding to frozen sections of mouse kidney and gut and its blocking; details: 1.10^−8 M
Description: Specificity of the binding site was confirmed by prior incubation of the tissue sections with UM207 (1.10^−8 M) or recombinant Wnt3a (1.10^−8 M).
One-half of the hearts of the mice was embedded in paraffin and cut in 4 μm sections. The paraffin sections were rehydrated and washed in PBS. One section was stained with AZAN, allowing an accurate determination of the infarct size. To visualize the myofibroblasts in the infarct area, the sections were incubated with an antibody directed against a-smooth muscle actin (Sigma-Aldrich), followed by incubation with the peroxidase-conjugated secondary antibody (Vector laboratories). Nuclei were visualized by hematoxylin. Photos were taken with a Leica (CTR500, 63x/0.85) camera and analyzed with the Quantimet program (QWin/QGo). An examiner blinded to the groups of the animals obtained all measurements. For the experiments with Rhodamine-labeled UM206, frozen sections (4 μm) of mouse kidney and small intestine were used.

[1] = system: Wnt/Fzd signal transduction cascade; test: Luciferase activity in HEK293-superTOPflash cells (Wnt/Fzd signal transduction cascade); type: cell-based, human; details: for Luciferase activity induced by the peptide by itself: without Wnt3a
Text: as §1
Three areas of high homology that contained two cysteines are underlined (UM207), (UM208) and (UM206). In FIGS. 9B through 9D, the inhibitory effect of these three peptides on Wnt3a-induced luciferase activity in HEK293-superTOPflash is shown. […] Again, the peptides by themselves had no effect on the luciferase activity.

[2] = system: C-FIT cells (cardiac fibroblasts immortalized with telomerase); test: Migration (wound/scratch) assay with C-FIT cells overexpressing Fzd-1 or -2; type: cell-based, rat
Description: For this assay, we used rat cardiac fibroblasts, which were immortalized with telomerase, the C-FIT cell line. This cell line was characterized previously and resembles features of primary cardiac fibroblasts. C-FIT cells were plated, treated when they were 70% confluent and a wound was made with a pipette tip at the moment of 100% confluence.
This assay was first tested with the natural ligand Wnt3a, in combination with frizzled-1 and -2 overexpression. […] Next step was to see whether the antagonist could counteract this. (See FIG. 4.)
Day 1: • Plate cells in 12-well plates
Day 2: • Transfection (see protocol)
Day 3: • Addition of conditioned medium
Day 4: • Make a scratch. This is time point zero.
Making pictures every six hours and analyzing the scratch width.
Cells were plated on day 0, and cultured until 70% confluence before transfection or treatment. Migration assays started 48 hours after transfection and/or treatment. The time point where the scratch was made, is indicated as 0 hours. Scratch width was measured at this time point, and also after 6, 12, and 24 hours.

Molecule: CC[C@H](C)[C@H](NC(=O)CNC(=O)[C@H](Cc1c[nH]cn1)NC(=O)[C@H](CO)NC(=O)[C@H](CO)NC(=O)[C@@H](NC(=O)[C@H](CC(N)=O)NC(=O)[C@H](CS)NC(C)=O)C(C)C)C(=O)N[C@@H](CC(=O)O)C(=O)NCC(=O)N[C@@H](CS)C(=O)N[C@@H](CC(=O)O)C(=O)N[C@@H](CC(C)C)C(N)=O [CNVSSHGIDGCDL] (Ac-CNVSSHGIDGCDL-NH2; N-terminus assumed)
% of inhibition for Fzd-2 (frizzled-2 (rFzd-2); 1.0): 62.41%
Activity on the frizzled receptor (in words) (frizzled receptor): showed antagonistic properties too, albeit that the potency was lower than that of UM206
% of inhibition for Fzd-1 (frizzled-1 (rFzd-1); 1.0): 45.32%

Molecule: CSCC[C@@H]1NC(=O)CNC(=O)[C@H](CCC(=O)O)NC(=O)[C@H](CO)NC(=O)[C@H]([C@@H](C)O)NC(=O)[C@H](CCCCN)NC(=O)[C@H](CC(N)=O)NC(=O)[C@@H](NC(C)=O)CSSC[C@@H](C(=O)N[C@@H](CCC(=O)O)C(=O)N[C@@H](CC(C)C)C(N)=O)NC(=O)CNC(=O)[C@H](CC(=O)O)NC1=O [UM206(S-S)] (Ac-CNKTSEGMDGCEL-NH2; disulfide 1-11)
Agonist activity, frizzled-2 (frizzled-2 (rFzd-2); FIG. 3, Panel F): specific agonist
Agonist activity, frizzled-5 (hFzd-5): not for frizzled-4 or frizzled-5
Agonist activity, frizzled-1 (frizzled-1 (rFzd-1); FIG. 3, Panel F): specific agonist
Agonist activity, frizzled-4 (hFzd-4): not for frizzled-4 or frizzled-5

Molecule: UM206-rhodamine: UM206 with rhodamine attached to Lys^3 (Ac-CNK(rhodamine)TSEGMDGCEL-NH2; reading uncertain; also: printed as Ac-Cys-Asn-Lys-Thr-Ser-Glu-Gly-Met-Asp-Gly-Cys-Glu-Leu-NH2)
Staining of frozen sections of mouse kidney and gut (Fzd-1 and -2; 15 minutes, two-foton microscopy): staining of tubular epithelium and panneth cells

Molecule: UM207 S-S: UM207 forced to form a cyclic structure by inducing a S-S bond between the two cysteine residues (GIKECQYQFRHRRWNCSTVD-NH2; disulfide 5-16 (inferred); not fully specified (N-terminus))
Activity on the frizzled receptor (in words) (frizzled receptor): potent agonist

Molecule: Wnt3a
Increase of the luciferase activity by natural ligand in combination with frizzled-2 (frizzled-2 (rFzd-2); concentration-dependent): twelve-fold
Blocking of UM206-rhodamine binding by prior incubation (Fzd-1 and -2): completely abolished the binding
Increase of luciferase activity on addition of Wnt3a ([1]; HEK293-superTOPflash, no Fzd transfection): ~450 fold
Effect of Wnt protein on migration of CFIT overexpressing rFzd-1 or -2 [2]: attenuated the migration

B1: Wnt5a: natural ligand (Wnt protein) for frizzled-1 and frizzled-2 (protein, listed as Homo sapiens)
chain: FFLMALATFFSFAQVVIEANSWWSLGMNNPVQMSEVHIIGAQPLCSQLAGLSQGQKKLCHLYQDHMQYIGEGAKTGIKECQYQFRHRRWNCSTVDNTSVFGRVMQIGSRETAFTYAVSAAGVVNAMSRACREGELSTCGCSRAARPKDLPRDWLWGGCGDNIDYGYRFAKEFVDARERERIHAKGSYESARILMNLHNNEAGRRTVYNLADVACKCHGVSGSCSLKTCWLQLADFRKVGDALKEKYDSAAAMRLNSRGKLVQVNSRFNSPTTQDLVYIDPSPDYCVRNESTGSLGTQGRLCNKTSEGMDGCELMCCGRGYDQFKTVQTERCHCKFHWCCYVKCKKCTEIVDQFVCK
Effect of Wnt protein on migration of CFIT overexpressing rFzd-1 or -2 [2]: attenuated the migration

The next lines start with results.

Blocking of Wnt3a-induced luciferase activity, rFzd-2 (frizzled-2 (rFzd-2)): blocked almost completely
Blocking of UM206-rhodamine binding by prior incubation (Fzd-1 and -2): completely abolished the binding
Activity on the frizzled receptor (in words) (frizzled receptor): potent antagonist
Blocking of Wnt3a-induced luciferase activity, rFzd-1 (frizzled-1 (rFzd-1)): blocked almost completely
Molecule: CC[C@H](C)[C@H](NC(=O)CNC(C)=O)C(=O)N[C@@H](CCCCN)C(=O)N[C@@H](CCC(=O)O)C(=O)N[C@@H](CS)C(=O)N[C@@H](CCC(N)=O)C(=O)N[C@@H](Cc1ccc(O)cc1)C(=O)N[C@@H](CCC(N)=O)C(=O)N[C@@H](Cc1ccccc1)C(=O)N[C@@H](CCCNC(=N)N)C(=O)N[C@@H](Cc1c[nH]cn1)C(=O)N[C@@H](CCCNC(=N)N)C(=O)N[C@@H](CCCNC(=N)N)C(=O)N[C@@H](Cc1c[nH]c2ccccc12)C(=O)N[C@@H](CC(N)=O)C(=O)N[C@@H](CS)C(=O)N[C@@H](CO)C(=O)N[C@H](C(=O)N[C@H](C(=O)N[C@@H](CC(=O)O)C(N)=O)C(C)C)[C@@H](C)O [UM207] (Ac-GIKECQYQFRHRRWNCSTVD-NH2)
Luciferase activity induced by the peptide by itself [1]: none of the three peptides by itself could induce an increase in luciferase activity

Blocking of Wnt3a-induced luciferase activity, rFzd-2 (frizzled-2 (rFzd-2)): blocked almost completely
Blocking of Wnt3a-induced luciferase activity, rFzd-1 (frizzled-1 (rFzd-1)): blocked almost completely
Molecule: CC(=O)NCC(=O)N[C@@H](CO)C(=O)N[C@@H](CS)C(=O)N[C@@H](CO)C(=O)N[C@@H](CC(C)C)C(=O)N[C@@H](CCCCN)C(=O)N[C@H](C(=O)N[C@@H](CS)C(=O)N[C@@H](Cc1c[nH]c2ccccc12)C(=O)N[C@@H](CC(C)C)C(=O)N[C@@H](CCC(N)=O)C(=O)N[C@@H](CC(C)C)C(=O)N[C@@H](C)C(=O)N[C@@H](CC(=O)O)C(N)=O)[C@@H](C)O [UM208, GSCSLKTCWLQLAD] (Ac-GSCSLKTCWLQLAD-NH2)
Luciferase activity induced by the peptide by itself [1]: none of the three peptides by itself could induce an increase in luciferase activity
